Patent US8343930B2, “Combination therapy for the treatment of tumors” (Cancer Advances, Inc., priority 2001, dated 2013)

What was measured:
[1] = test system: rat colon tumor DHDK12; assay: In vivo growth of DHDK12 tumors in abdominal wall muscle layer of BDIX rats; conditions: immunization alone (200 μg/ml), 50 day time period; untreated 4.43 g
Experimental: Cell line. DHDK12 is a rat colonic epithelial tumor cell line (Martin, 1983). The cell line was maintained in RPMI 1640 growth medium (Gibco, Paisley, Scotland) containing 10% fetal calf serum (FCS, Sigma, Poole, UK) in humidified conditions at 37° C. and 5% CO2.
Initiation of tumor growth. DHDK12 cells were suspended in sterile phosphate buffered line (PBS, Oxoid, Hants., UK) at a cell concentration of 2.5×10^7/ml. Rats were anesthetized by a 1 ml intraperitoneal injection of Hypnorm ([…] fenatanyl citrate and 10 mg/ml fluanisone; Jannsen, Berrse, Belgium), Hypnovel ([…] midazolam; Roche, Basel, Switzerland), and sterile distilled water in a 1:1:5 ratio. Following a subcutaneous (s.c.) incision on the right flank, a 200 μl volume of cell suspension was injected into the muscle layer of the abdominal wall and the surgical incision closed by wound clips. Each experimental group was composed of between 6 and 13 animals.
The effects of combined therapies with 5-FU/Leucovorin (12.5-30 mg/kg) and rat anti-G17(1-9)-DT (200 μg/ml) on the growth of the rat colon tumor DHDK12 cell line in the muscle layer of the abdominal wall of BDIX rats were tested by comparison to tumors in control animals as described in the previous Examples. At the end of the therapies the rats were killed, their tumors excised and weighed using standard procedures. […]

[2] = test system: a number of cell lines; conditions: Seva et al., 1990; Watson et al., 1991a; cited from earlier work
[3] = test system: advanced colorectal cancer; conditions: advanced disease (Petrioli et al., 1995); cited from earlier work
[4] = test system: gastrin-sensitive mouse colon tumor MC26; conditions: MC26-bearing mice; control animals 25 days; cited from earlier work

Molecule Diphtheria toxoid [DT] has a median tumor weight [1] of 4.7 g.
In the case of `O=C(N[C@@H](Cc1c[nH]c2ccccc12)C(=O)O)c1ccc(Cl)cc1` [Benzotript], the “effect on basal and gastrin-stimulated proliferation” value [2] is listed as “inhibited”.
For `O=c1[nH]cc(F)c(=O)[nH]1` [5-FU, 5-fluorouracil], the median survival [3] is given as 7.5 months.
In the case of `CCCN(CCC)C(=O)C(CCC(=O)O)NC(=O)c1ccccc1` (centres unmarked) [proglumide], the “survival of treated animals” value [4] is given as 39 days and the “effect on basal and gastrin-stimulated proliferation” value [2] is given as “inhibited”.
